Data from US20240238242A1, “EGCG buccal tablet and use thereof” (priority 2023, published 2024).
Where two headings read alike, the source gives them in different places.

Key:
[1] = tested on: Novel enterovirus D68 (EV-D68); format: cell-based; settings: for CPE test (virus replication in cell wells) / CPE test (virus replication in the cell wells): wells 1-10; for average inactivation efficiency against virus / inactivation efficiency against the virus: EV-D68 virus; for average inactivation efficiency against virus: three experiments; for CPE test per cell well: first experiment; for inactivation efficiency against the virus: single experiment
[2] = tested on: Madin-darby canine kidney cells (MDCK)

O=C(O[C@@H]1Cc2c(O)cc(O)cc2O[C@@H]1c1cc(O)c(O)c(O)c1)c1cc(O)c(O)c(O)c1 [EGCG, Epigallocatechin gallate]
CPE test (virus replication in cell wells) ([1]; 1 mM EGCG + virus, 1 minute, dilution factor 10^6, third experiment): + and − | CPE test (virus replication in cell wells) ([1]; 1 mM EGCG + virus, 1 minute, dilution factor 10^7, second experiment): − and + | CPE test (virus replication in cell wells) ([1]; 1 mM EGCG + virus, 1 minute, dilution factor 10^7, third experiment): − and + | CPE test (virus replication in cell wells) ([1]; 1 mM EGCG + virus, 1 minute, dilution factor 10^8, second experiment): − | CPE test (virus replication in cell wells) ([1]; 1 mM EGCG + virus, 1 minute, dilution factor 10^8, third experiment): − | CPE test (virus replication in the cell wells) ([1]; 1 mM EGCG + virus, co-incubated 5 minute, dilution factor 10^1, first experiment): + | CPE test (virus replication in the cell wells) ([1]; 1 mM EGCG + virus, co-incubated 5 minute, dilution factor 10^1, second experiment): + | CPE test (virus replication in the cell wells) ([1]; 1 mM EGCG + virus, co-incubated 5 minute, dilution factor 10^2, first experiment): + | CPE test (virus replication in the cell wells) ([1]; 1 mM EGCG + virus, co-incubated 5 minute, dilution factor 10^2, second experiment): + | CPE test (virus replication in the cell wells) ([1]; 1 mM EGCG + virus, co-incubated 5 minute, dilution factor 10^3, first experiment): + | CPE test (virus replication in the cell wells) ([1]; 1 mM EGCG + virus, co-incubated 5 minute, dilution factor 10^3, second experiment): + | CPE test (virus replication in the cell wells) ([1]; 1 mM EGCG + virus, co-incubated 5 minute, dilution factor 10^4, first experiment): + | CPE test (virus replication in the cell wells) ([1]; 1 mM EGCG + virus, co-incubated 5 minute, dilution factor 10^4, second experiment): + | CPE test (virus replication in the cell wells) ([1]; 1 mM EGCG + virus, co-incubated 5 minute, dilution factor 10^5, first experiment): + | CPE test (virus replication in the cell wells) ([1]; 1 mM EGCG + virus, co-incubated 5 minute, dilution factor 10^5, second experiment): + | CPE test (virus replication in the cell wells) ([1]; 1 mM EGCG + virus, co-incubated 5 minute, dilution factor 10^6, first experiment): + and − | CPE test (virus replication in the cell wells) ([1]; 1 mM EGCG + virus, co-incubated 5 minute, dilution factor 10^6, second experiment): + and − | CPE test (virus replication in the cell wells) ([1]; 1 mM EGCG + virus, co-incubated 5 minute, dilution factor 10^7, first experiment): − | CPE test (virus replication in the cell wells) ([1]; 1 mM EGCG + virus, co-incubated 5 minute, dilution factor 10^7, second experiment): − | CPE test (virus replication in the cell wells) ([1]; 1 mM EGCG + virus, co-incubated 5 minute, dilution factor 10^8, first experiment): − | CPE test (virus replication in the cell wells) ([1]; 1 mM EGCG + virus, co-incubated 5 minute, dilution factor 10^8, second experiment): − | average inactivation efficiency against virus ([1]; 1 mM EGCG, 1 minute): 41.23% | average inactivation efficiency against virus ([1]; 1 mM EGCG, 5 minutes): 35.78% | CPE test per cell well ([1]; 5 mM EGCG + EV-D68 virus, 1 minute, dilution factor 10^2, wells 1-10): + | CPE test per cell well ([1]; 5 mM EGCG + EV-D68 virus, 1 minute, dilution factor 10^3, wells 1-10): + | CPE test per cell well ([1]; 5 mM EGCG + EV-D68 virus, 1 minute, dilution factor 10^4, wells 1-10): + | CPE test per cell well ([1]; 5 mM EGCG + EV-D68 virus, 1 minute, dilution factor 10^5, wells 1-10): + | CPE test per cell well ([1]; 5 mM EGCG + EV-D68 virus, 1 minute, dilution factor 10^6, wells 1-10): − and + | CPE test per cell well ([1]; 5 mM EGCG + EV-D68 virus, 1 minute, dilution factor 10^7, wells 1-10): − and + | CPE test per cell well ([1]; 5 mM EGCG + EV-D68 virus, 1 minute, dilution factor 10^8, wells 1-10): − | CPE test (virus replication in cell wells) ([1]; 5 mM EGCG + EV-D68 virus, co-incubated 5 minute, third experiment, dilution factor 10^2): + | CPE test (virus replication in cell wells) ([1]; 5 mM EGCG + EV-D68 virus, co-incubated 5 minute, third experiment, dilution factor 10^3): + | CPE test (virus replication in cell wells) ([1]; 5 mM EGCG + EV-D68 virus, co-incubated 5 minute, third experiment, dilution factor 10^4): + | CPE test (virus replication in cell wells) ([1]; 5 mM EGCG + EV-D68 virus, co-incubated 5 minute, third experiment, dilution factor 10^5): + | CPE test (virus replication in cell wells) ([1]; 5 mM EGCG + EV-D68 virus, co-incubated 5 minute, third experiment, dilution factor 10^6): − and + | CPE test (virus replication in cell wells) ([1]; 5 mM EGCG + EV-D68 virus, co-incubated 5 minute, third experiment, dilution factor 10^7): − | CPE test (virus replication in cell wells) ([1]; 5 mM EGCG + EV-D68 virus, co-incubated 5 minute, third experiment, dilution factor 10^8): − | CPE test (virus replication in cell wells) ([1]; 5 mM EGCG + virus, 1 minute, dilution factor 10^1, third experiment): + | CPE test (virus replication in cell wells) ([1]; 5 mM EGCG + virus, 1 minute, dilution factor 10^2, second experiment): + | CPE test (virus replication in cell wells) ([1]; 5 mM EGCG + virus, 1 minute, dilution factor 10^2, third experiment): + | CPE test (virus replication in cell wells) ([1]; 5 mM EGCG + virus, 1 minute, dilution factor 10^3, second experiment): + | CPE test (virus replication in cell wells) ([1]; 5 mM EGCG + virus, 1 minute, dilution factor 10^3, third experiment): + | CPE test (virus replication in cell wells) ([1]; 5 mM EGCG + virus, 1 minute, dilution factor 10^4, second experiment): + | CPE test (virus replication in cell wells) ([1]; 5 mM EGCG + virus, 1 minute, dilution factor 10^4, third experiment): + | CPE test (virus replication in cell wells) ([1]; 5 mM EGCG + virus, 1 minute, dilution factor 10^5, second experiment): + | CPE test (virus replication in cell wells) ([1]; 5 mM EGCG + virus, 1 minute, dilution factor 10^5, third experiment): + | CPE test (virus replication in cell wells) ([1]; 5 mM EGCG + virus, 1 minute, dilution factor 10^6, second experiment): + and − | CPE test (virus replication in cell wells) ([1]; 5 mM EGCG + virus, 1 minute, dilution factor 10^6, third experiment): + and − | CPE test (virus replication in cell wells) ([1]; 5 mM EGCG + virus, 1 minute, dilution factor 10^7, second experiment): − | CPE test (virus replication in cell wells) ([1]; 5 mM EGCG + virus, 1 minute, dilution factor 10^7, third experiment): − and + | CPE test (virus replication in cell wells) ([1]; 5 mM EGCG + virus, 1 minute, dilution factor 10^8, second experiment): − | CPE test (virus replication in cell wells) ([1]; 5 mM EGCG + virus, 1 minute, dilution factor 10^8, third experiment): − | CPE test (virus replication in the cell wells) ([1]; 5 mM EGCG + virus, co-incubated 5 minute, dilution factor 10^2, first experiment): + | CPE test (virus replication in the cell wells) ([1]; 5 mM EGCG + virus, co-incubated 5 minute, dilution factor 10^2, second experiment): + | CPE test (virus replication in the cell wells) ([1]; 5 mM EGCG + virus, co-incubated 5 minute, dilution factor 10^3, first experiment): + | CPE test (virus replication in the cell wells) ([1]; 5 mM EGCG + virus, co-incubated 5 minute, dilution factor 10^3, second experiment): + | CPE test (virus replication in the cell wells) ([1]; 5 mM EGCG + virus, co-incubated 5 minute, dilution factor 10^4, first experiment): + | CPE test (virus replication in the cell wells) ([1]; 5 mM EGCG + virus, co-incubated 5 minute, dilution factor 10^4, second experiment): + | CPE test (virus replication in the cell wells) ([1]; 5 mM EGCG + virus, co-incubated 5 minute, dilution factor 10^5, first experiment): + | CPE test (virus replication in the cell wells) ([1]; 5 mM EGCG + virus, co-incubated 5 minute, dilution factor 10^5, second experiment): + | CPE test (virus replication in the cell wells) ([1]; 5 mM EGCG + virus, co-incubated 5 minute, dilution factor 10^6, first experiment): − and + | CPE test (virus replication in the cell wells) ([1]; 5 mM EGCG + virus, co-incubated 5 minute, dilution factor 10^6, second experiment): + and − | CPE test (virus replication in the cell wells) ([1]; 5 mM EGCG + virus, co-incubated 5 minute, dilution factor 10^7, first experiment): − | CPE test (virus replication in the cell wells) ([1]; 5 mM EGCG + virus, co-incubated 5 minute, dilution factor 10^7, second experiment): − | CPE test (virus replication in the cell wells) ([1]; 5 mM EGCG + virus, co-incubated 5 minute, dilution factor 10^8, first experiment): − | CPE test (virus replication in the cell wells) ([1]; 5 mM EGCG + virus, co-incubated 5 minute, dilution factor 10^8, second experiment): − | inactivation efficiency against the virus ([1]; 5 mM EGCG, 1 minute): 80.05% | average inactivation efficiency against virus ([1]; 5 mM EGCG, 1 minute): 66.10% | inactivation efficiency against the virus ([1]; 5 mM EGCG, 5 minutes): 74.88% | average inactivation efficiency against virus ([1]; 5 mM EGCG, 5 minutes): 66.55% | CPE test / cytotoxicity, negative control group [2]: − | Cytotoxicity / CPE in cell wells 1-10, negative control group [2]: − | Cytotoxicity / CPE in cell wells, negative control group (EGCG + culture medium) [2]: − | Cytotoxicity / CPE in cell wells, negative control group (wells 1-10) [2]: − | Cytotoxicity / CPE in negative control group [2]: − | Cytotoxicity / CPE per cell well, negative control group [2]: − | Cytotoxicity / CPE test, negative control group [2]: − | cell status in negative control group ([2]; MDCK cells, 0.2 mM group): good growth status | cytotoxicity in negative control group ([2]; MDCK cells, 1 mM group): cytotoxicity was observed | cytotoxicity in negative control group ([2]; MDCK cells, 5 mM group): cytotoxicity was observed | cytotoxicity in negative control group ([2]; MDCK cells, sample of 10 times dilution in the 1 mM group): cytotoxicity was observed
